Measurements: patent US12741974B2, “Compounds constituting C20-modified salinomycin derivatives, a method for obtaining the same, a composition containing the same, a use of said compounds and a method for obtaining an intermediate product” (FILECLO SP. Z O.O., priority 2020, dated 2021)

What was measured:
Hs294T (human melanoma) = assay: In vitro cytotoxicity test, SRB assay, 72 h incubation with compound; assay type: cell-based; conditions: for IC50: Hs294T human melanoma, SRB, 72 h; for SI Hs294T: selectivity coefficient, BALB/3T3 versus Hs294T
Procedure: (§1) In vitro cytotoxicity tests were performed according to the procedure described below. […] The solvent for further dilutions was a culture medium.
(§2) The experiments were repeated at least 3 times.

[1] = test system: MV-4-11 (human biphenotypic leukaemia); assay: In vitro cytotoxicity test, MTT assay, 72 h incubation with compound; assay type: cell-based; conditions: for IC50: MV-4-11 human biphenotypic leukaemia, MTT, 72 h; for SI MV-4-11: selectivity coefficient, BALB/3T3 versus MV-4-11
Procedure: as §1, §2
After 4 hours of incubation at 37° C., 80 μL of lysis buffer was added to each well.

[2] = test system: BALB/3T3 (normal murine fibroblasts); assay: In vitro cytotoxicity test on normal cells, SRB assay, 72 h incubation with compound; assay type: cell-based; conditions: read-out: IC50 BALB/3T3
Procedure: (§3) Normal murine BALB/3T3 fibroblasts were also used in the tests for determining the selectivity coefficients of the compounds used in the assays.
as §1, §2

B16-F0 (murine melanoma) = assay: In vitro cytotoxicity test, SRB assay, 72 h incubation with compound; assay type: cell-based; conditions: for IC50: B16-F0 murine melanoma, SRB, 72 h; for SI B16-F0: selectivity coefficient, BALB/3T3 versus B16-F0
Procedure: as §1, §2

[3] = test system: LoVo (drug-sensitive human colon cancer); assay: as above; assay type: cell-based; conditions: for IC50: LoVo drug-sensitive human colon cancer, SRB, 72 h; for SI LoVo: selectivity coefficient, BALB/3T3 versus LoVo
Procedure: as §1, §2

[4] = test system: LoVo/DX (drug-resistant human colon cancer); assay: as above; assay type: cell-based; conditions: for IC50: LoVo/DX drug-resistant human colon cancer, SRB, 72 h; for RI: drug resistance coefficient, LoVo/DX versus LoVo, 4320 min; for SI LoVo/DX: selectivity coefficient, BALB/3T3 versus LoVo/DX
Procedure: as §1, §2

[5] = test system: MCF-7 (human breast cancer); assay: as above; assay type: cell-based; conditions: for IC50: MCF-7 human breast cancer, SRB, 72 h; for SI MCF-7: selectivity coefficient, BALB/3T3 versus MCF-7
Procedure: as §1, §2

[6] = In vitro cytotoxicity test on normal cells, SRB assay, 72 h incubation with compound; assay type: cell-based; conditions: mouse, balb/3t3 cells, normal murine fibroblasts, read-out: IC50 BALB/3T3
Procedure: as §3, §1, §2

cancer cells = assay: In vitro cytotoxicity tests, summary statements over the cancer cell lines; assay type: cell-based; conditions: in words; for anti-proliferative effect compared to the parent compound: versus salinomycin
Procedure: The following cancer cell lines were used in in vitro studies: • B16-F0 (murine melanoma), • Hs294T (human melanoma), • LoVo (drug-sensitive human colon cancer), • LoVo/DX (drug-resistant human colon cancer), • MCF-7 (human breast cancer), • MV-4-11 (human biphenotypic leukaemia).
as §3
In vitro cytotoxicity tests were performed according to the procedure described below. Stock solutions of the test compounds at 10 mg/mLh were prepared for each experiment ex tempore by dissolving 1 mg of the preparation in 100 μL of dimethylsulfoxide (DMSO). The solvent for further dilutions was a culture medium. Compounds were tested at concentration ranges of 100 to 0.00001 μg/mLh (for the B16-F0 and Hs294T cell lines) and 100 to 0.1 μg/mLh (for the LoVo, LoVo/DX, MCF-7, MV-4-11 and BALB/3T3 cell lines).
An MTT tetrazolium salt reduction assay [as per: Wietrzyk et al., Anti-cancer drugs, 2007, 18, 447-457] was performed for MV-4-11 cells (human biphenotypic leukaemia) to evaluate the metabolic activity of cancer cells. On the other hand, to determine the anti-proliferative activity of all tested compounds against B16-F0 (murine melanoma), Hs294T (human melanoma), LoVo (drug-sensitive human colon cancer), LoVo/DX (drug-resistant human colon cancer), MCF-7 (human breast cancer) and BALB/3T3 (normal mouse fibroblasts) cell lines, the SRB colorimetric assay was used [as per: Skehan et al., Journal of the National Cancer Institute, 1990, 82, 1107-1112] measuring the inhibition of target cell proliferation based on the amount of cellular protein measured. In each experiment, samples containing specific concentrations of the test compound were applied to 96-well plates in triplicate. The experiments were repeated at least 3 times.
When calculating the mean absorbance value for a set of wells (untreated cells, cells treated with a specific compound at a specific concentration, control of medium alone), outliers were rejected using a 10% coefficient of variation CV.

[7] = test system: advanced head, neck, breast and ovarian cancer; conditions: small group of patients with advanced head; cited from earlier work

Structure (SMILES)	IC50 (Hs294T (human melanoma))	SI Hs294T (Hs294T (human melanoma))	IC50 [1]	SI MV-4-11 [1]	CC50 [2]	IC50 (B16-F0 (murine melanoma); Mus musculus, B16F0)	SI B16-F0 (B16-F0 (murine melanoma))	IC50 (Hs294T (human melanoma); Hs 294T)	IC50 [3]	SI LoVo [3]	IC50 [4]	RI [4]	SI LoVo/DX [4]	IC50 ([5]; MCF7)	SI MCF-7 [5]	IC50 ([1]; MV4-11)	CC50 at 72 h [6]	anti-proliferative effect compared to the parent compound (cancer cells)	also measured
CC[C@@H](C(=O)[C@@H](C)[C@@H](O)[C@H](C)[C@@H]1O[C@@H]([C@@H](CC)C(=O)O)CC[C@@H]1C)[C@H]1O[C@]2(C=C[C@H](NC(=O)C(C)C)[C@]3(CC[C@@](C)([C@H]4CC[C@](O)(CC)[C@H](C)O4)O3)O2)[C@H](C)C[C@@H]1C [(10 epi), reference compound]	4000 nM	0.95	400 nM	9.5	3800 nM														
CC[C@@H](C(=O)[C@@H](C)[C@@H](O)[C@H](C)[C@@H]1O[C@@H]([C@@H](CC)C(=O)O)CC[C@@H]1C)[C@H]1O[C@]2(C=C[C@@H](NC(=O)C(C)C)[C@]3(CC[C@@](C)([C@H]4CC[C@](O)(CC)[C@H](C)O4)O3)O2)[C@H](C)C[C@@H]1C [(10), C20-dehydroxy-C20-aminosalinomycin N-isobutyramide]		176.0		50.3		70 nM	50.3	20 nM	670 nM	5.3	190 nM	0.3	18.5	700 nM	5.0	70 nM	3520 nM	several times more potent	
CC[C@@H](C(=O)[C@@H](C)[C@@H](O)[C@H](C)[C@@H]1O[C@@H]([C@@H](CC)C(=O)O)CC[C@@H]1C)[C@H]1O[C@]2(C=C[C@H](NC(=O)CCCCl)[C@]3(CC[C@@](C)([C@H]4CC[C@](O)(CC)[C@H](C)O4)O3)O2)[C@H](C)C[C@@H]1C [(12 epi), reference compound]			2500 nM	2.9	7300 nM														
CC[C@@H](C(=O)[C@@H](C)[C@@H](O)[C@H](C)[C@@H]1O[C@@H]([C@@H](CC)C(=O)O)CC[C@@H]1C)[C@H]1O[C@]2(C=C[C@H](NC(=O)c3ccccc3)[C@]3(CC[C@@](C)([C@H]4CC[C@](O)(CC)[C@H](C)O4)O3)O2)[C@H](C)C[C@@H]1C [(15 epi), reference compound]	80 nM	12.5	33 nM	30	1000 nM		2.5		200 nM	5	630 nM	3	1.6		0.9				IC50 (B16-F0 (murine melanoma)): 400 nM; IC50 [5]: 1100 nM
CC[C@@H](C(=O)[C@@H](C)[C@@H](O)[C@H](C)[C@@H]1O[C@@H]([C@@H](CC)C(=O)O)CC[C@@H]1C)[C@H]1O[C@]2(C=C[C@@H](NC(=O)c3ccccc3)[C@]3(CC[C@@](C)([C@H]4CC[C@](O)(CC)[C@H](C)O4)O3)O2)[C@H](C)C[C@@H]1C [(15), C20-dehydroxy-C20-aminosalinomycin N-benzamide]		81.5		27.2		20 nM	81.5	20 nM	280 nM	5.1	50 nM	0.2	32.6	280 nM	5.8	60 nM	1630 nM	several times more potent	
CCOC(=O)N[C@H]1C=C[C@]2(O[C@H]([C@@H](CC)C(=O)[C@@H](C)[C@@H](O)[C@H](C)[C@@H]3O[C@@H]([C@@H](CC)C(=O)O)CC[C@@H]3C)[C@@H](C)C[C@H]2C)O[C@@]12CC[C@@](C)([C@H]1CC[C@](O)(CC)[C@H](C)O1)O2 [(19 epi), reference compound]	60 nM	16	46 nM	22	1000 nM		3		240 nM	4.1	700 nM	3	1.4		1				IC50 (B16-F0 (murine melanoma)): 330 nM; IC50 [5]: 1000 nM
C#CCOC(=O)N[C@@H]1C=C[C@]2(O[C@H]([C@@H](CC)C(=O)[C@@H](C)[C@@H](O)[C@H](C)[C@@H]3O[C@@H]([C@@H](CC)C(=O)O)CC[C@@H]3C)[C@@H](C)C[C@H]2C)O[C@@]12CC[C@@](C)([C@H]1CC[C@](O)(CC)[C@H](C)O1)O2 [(22), C20-dehydroxy-C20-aminosalinomycin N-propargylcarbamate]		322.0		26.4		20 nM	66.0	4.1 nM	300 nM	4.4	50 nM	0.2	26.4	340 nM	3.9	50 nM	1320 nM	tens of times more potent	
CC[C@@H](C(=O)[C@@H](C)[C@@H](O)[C@H](C)[C@@H]1O[C@@H]([C@@H](CC)C(=O)[O-])CC[C@@H]1C)[C@H]1O[C@]2(C=C[C@@H](NC(=O)NCCCCl)[C@]3(CC[C@@](C)([C@H]4CC[C@](O)(CC)[C@H](C)O4)O3)O2)[C@H](C)C[C@@H]1C.[Na+] [(25), 3-chloropropylurea of C20-dehydroxy-C20-aminosalinomycin]		241.1		4500.0		10 nM	135.0	5.6 nM	20 nM	67.5	220 nM	11.0	6.1	180 nM	7.5	0.3 nM	1350 nM	tens of times more potent	preferred effect against a type of cancer cells (cancer cells): preferred effect against biphenotypic leukaemia cells
CC[C@@H](C(=O)[C@@H](C)[C@@H](O)[C@H](C)[C@@H]1O[C@@H]([C@@H](CC)C(=O)O)CC[C@@H]1C)[C@H]1O[C@]2(C=C[C@@H](O)[C@]3(CC[C@@](C)([C@H]4CC[C@](O)(CC)[C@H](C)O4)O3)O2)[C@H](C)C[C@@H]1C [salinomycin]		3.7		29.7		630 nM	3.3	560 nM	210 nM	9.9	480 nM	2.3	4.3	2100 nM	1.0	70 nM	2080 nM		effect on cancer progression in patients [7]: inhibition of cancer progression; side effects in patients [7]: no acute side effects
